Patent US8178091B2, “Compositions and methods for the treatment of respiratory disorders” (University of Washington, priority 2007, dated 2012)
Entries after “also recorded” stand apart in the source; their conditions may differ.

Tests used:
[1] = tested on: primary normal human lung fibroblasts; assay: apoptosis assay (Cell Death Detection ELISA-plus), lung fibroblasts; format: cell-based; settings: serum starvation, increasing concentrations; listed as IGF-1R antibody
Description: A: Normal human lung fibroblast or distal lung epithelial cells were serum-starved overnight and then incubated with indicated concentration of IGF-1R antibody or IGFBP-3 overnight. B: A549 cells were serum-starved and incubated with IGF-1R antibody (136 μg/ml) with or without the indicated concentration of Fas ligand. Apoptosis was measured by Cell Death ELISA-plus ELISA (Roche Applied Science) per the manufacturer's directions. All experiments were done in triplicate and repeated at least twice. Apoptosis index is defined as the ratio of experimental condition OD405 nm: control (media alone) OD405 nm.
Primary normal human lung fibroblasts (Clonetics, Cambrex Bioscience, Rockland, Me.), primary distal lung human epithelial cells (Clonetics) or A549 (American Type Culture Collection, Manassas, Va.) were seeded in a 96-well tissue culture plate (2×10^4 cells/well) overnight and serum-starved for 24 hours. […] After 48 hours, apoptosis was measured. To prevent detached cells from being aspirated, plates were centrifuged at 200×g for 10 minutes, and apoptosis was measured using the Cell Death Detection ELISA-plus System (Roche Applied Science, Penzberg, Germany), which detects cytosolic histone-complexed DNA fragments. […]

fibroblasts = assay: Fas-induced apoptosis, fibroblasts; format: cell-based, human; settings: data not shown
Description: Primary normal human lung fibroblasts (Clonetics, Cambrex Bioscience, Rockland, Me.), primary distal lung human epithelial cells (Clonetics) or A549 (American Type Culture Collection, Manassas, Va.) were seeded in a 96-well tissue culture plate (2×10^4 cells/well) overnight and serum-starved for 24 hours. Function blocking antibody to the human type 1 IGF receptor (A12), a generous gift from ImClone Systems (New York, N.Y.) (Burtrum D, et al., Cancer Res 63:8912-8921 (2003); Wu J D, et al., Clin Cancer Res 11:3065-3074 (2005)), was added to media at indicated concentration for 24 hours. In some experiments, soluble Fas ligand (Alexis Biochemicals, Lausen, Switzerland) or IGFBP-3 (R&D Systems) was added to cells. […] After 48 hours, apoptosis was measured. To prevent detached cells from being aspirated, plates were centrifuged at 200×g for 10 minutes, and apoptosis was measured using the Cell Death Detection ELISA-plus System (Roche Applied Science, Penzberg, Germany), which detects cytosolic histone-complexed DNA fragments. […] The data are reported as the mean absorbance of triplicate wells mean+SE or as apoptosis index, defined as the ratio of the mean absorbance of triplicate wells in the experimental condition OD405 nm/control (media alone) OD405 nm.

[2] = tested on: primary mouse lung fibroblasts; assay: apoptosis assay (Cell Death Detection ELISA-plus), mouse lung fibroblasts; format: cell-based, C57BL6 mice; settings: serum-starved, 24 hours
Description: A. Quantification of TUNEL IHC by number of TUNEL positive cells/total # of cells. Average ±SD of two mice/condition and at least 500 cells analyzed per condition. […] Mouse lung fibroblasts were serum starved overnight and then incubated with indicated concentration of IGF-1R antibody, A12. Apoptosis was measured by Cell Death ELISA-plus (Roche Applied Science). All experiments were done in triplicate and repeated at least twice. Apoptosis index is defined as ratio of experimental condition OD405nm/control (media alone) OD405nm. The data was analyzed using one-way ANOVA with Tukey's HSD post hoc test, and statistical significance (*) was determined at p<0.05.
For apoptosis assays, primary mouse lung fibroblasts were plated in 96-well plates (20,000 cells/well) overnight and serum-starved for 24 hours. Functional blocking antibody to the type 1 IGF receptor (A12) was added to media at indicated concentration for 24 hours. At the end of the experiment, plates were centrifuged at 200×g for 10 minutes to prevent detached cells from being aspirated, and apoptosis was measured using the Cell Death Detection ELISA-plus System (Roche Applied Science, Penzberg, Germany), which detects cytosolic histone-complexed DNA fragments. All experiments were done in triplicate and repeated at least twice. Apoptosis index was defined as ratio of experimental condition OD405nm/control (media alone) OD405nm.

bleomycin-treated mice = assay: bleomycin-induced lung injury and fibrosis model; format: in vivo
Description: ICR male mice are anesthetized under pentobarbital (60 mg/kg, i.v.) anesthesia, the cervical region is shaved and the skin is incised for about 4 mm from under the larynx region along the median line. Next, the muscle layer covering upper trachea is peeled off to expose the trachea. Using a micro-syringe, physiological saline or bleomycin hydrochloride (0.03 mg/animal, manufactured by Nippon Kayaku) is administered tracheally (50 μl/animal) from the tracheal smooth muscle region between cricoid cartilage. After the administration, the incised region is closed and antibiotics are administered into the thigh intramuscularly in order to prevent infection. IGF-1R inhibitor, e.g., antibody to IGF-1 receptor (A12). […] Controls included bleomycin-treated animals receiving saline injection in place of A12 antibody. At various time points after the induction, each animal is sacrificed by exsanguination under pentobarbital anesthesia, and lung tissue is excised to monitor for differences in lung injury in the test versus control groups. In addition, bronchoalveolar lavage is performed, with analysis of the resulting fluid for differences in total protein, cytokines, inflammatory cells and fibroblasts or in the responsiveness of such cells to, e.g., apoptotic or other stimuli. Lung hydroxyproline content is measured as a measure of fibrosis. Changes in lung tissue histology are also monitored. Further details on the processing of lung tissue for analysis include the following. At time of sacrifice, the right main stem bronchus was tied off and the left lung was isolated and lavaged with 1 ml of PBS containing 0.6 mM EDTA warmed to 37° C. Bronchoalveolar lavage fluid (BALF) total cell count was determined by trypan blue exclusion and cell differential was determined on Diff quick (Dade Behring Ag, Düdingen, Switzerland) stained cytospins. Following brief centrifugation, cell-free supernatants were used for measurement of total protein by Bio-Rad protein assay (Bio-Rad laboratories, Hercules, Calif.). […] Hydroxyproline concentration was extrapolated from a standard curve. The right lung was inflated and fixed with 4% formaldehyde at 25 cmH2O pressure for histologic evaluation.
For these experiments, the bleomycin-induced lung injury was initiated in the manner described herein above, and the A12 anti-IGF-1R antibody was used for receptor blockade. Mice treated with bleomycin were treated with a monoclonal antibody against the IGF-1 receptor (A12) or vehicle.
For statistical analyses of the data, means of more than two groups of data were compared using one-way analysis of variance (ANOVA) with Tukey's honestly significant difference (HSD) post hoc test. In some cases, Kaplan-Meier Survival Analysis was performed using JMP IN v5.1; statistical significance was determined using log rank test.

insulin receptor (IR) = insulin receptor (IR) (Homo sapiens, UniProt P06213); settings: cited from earlier work
IGF-1R = settings: murine and human tissues; cited from earlier work

A12: Function blocking antibody to the human type 1 IGF receptor, gift from ImClone Systems
apoptosis of primary human lung fibroblasts [1]: dose-dependent increase in apoptosis; also recorded: increased apoptosis
Fas-induced apoptosis of fibroblasts (fibroblasts): did not alter Fas-induced apoptosis
apoptosis of primary mouse lung fibroblasts [2]: dose-dependent increase in apoptosis; also recorded: Increased apoptosis
apoptosis of primary mouse lung fibroblasts ([2]; listed as IGF-1R antibody): increased apoptosis
proportion of mice surviving (bleomycin-treated mice; 7-14 days post-bleomycin, A12 40 mg/kg i.p. vs saline): significantly greater
BALF total protein concentration (bleomycin-treated mice; 28 days, vs saline, p=0.16): trend towards decreased BALF protein concentration
weight loss (bleomycin-treated mice; by d14, bleomycin-treated mice): 20%
lung hydroxyproline content (fibrosis) (bleomycin-treated mice; day 7 and day 14, vs saline): no significant differences
lung histology (bleomycin-treated mice; day 14, vs saline): Only subtle histological differences; also recorded: qualitatively less fibrosis
lung histology (bleomycin-treated mice; day 28, vs saline): Reduced evidence of fibrosis; also recorded: better preservation of lung architecture and lung size, and fewer areas of fibrosis
lung hydroxyproline content (fibrosis) (bleomycin-treated mice; day 28, vs saline control (p=0.03) or d14 (p=0.001)): significantly lower lung hydroxyproline levels; also recorded: significantly less hydroxyproline
BALF total protein concentration (bleomycin-treated mice; days 7 and 14, vs saline): no significant difference; also recorded: no difference in BALF protein concentration
survival (Kaplan-Meier) (bleomycin-treated mice; n=24 per group, p=0.01 vs saline control): statistically significant survival benefit
BALF differential cell count (bleomycin-treated mice; vs saline): no significant difference; also recorded: no difference in the cell differential
BALF total cell count (bleomycin-treated mice; vs saline): no significant difference; also recorded: not statistically different
respiratory or systemic distress by body condition scoring (bleomycin-treated mice; vs saline control): less evidence of respiratory or systemic distress
cross-reaction with insulin receptor (insulin receptor (IR)): does not cross-react
IGF-1R signaling (IGF-1R): inhibits IGF-1R signaling
